Measurements taken from article PMC7066135, “The lipoprotein Pal stabilises the bacterial outer membrane during constriction by a mobilisation-and-capture mechanism” (Nature Communications, 2020).

Test system: Pal-mCherry accumulation at the septum
Assay: TIRFM of Pal-mCherry accumulation at the division septum
Type: cell-based
Conditions: dividing E. coli cells, mutant TolB; average of 30 cells
Experimental: Overnight supplemented M9-glucose (2 mM MgSO4, 0.1 mM CaCl2, 0.4% (w/v) D-glucose) cultures were diluted in fresh medium with appropriate antibiotics and IPTG for strains expressing TolA from plasmids. Cultures were grown at 37 °C to OD600 0.3. Cells were centrifuged at 7000 × g for 1 min, resuspended in 1 ml of fresh media and treated with CCCP (0.1 mM, RT for 5 min, Sigma #C2759) for PMF decoupling, sodium azide (50 µg ml^−1, RT for 30 min, Sigma #S2002) for ATPase inhibition or chloramphenicol (30 µg ml^−1, 37 °C for 30 min, Sigma #C0378) for translation inhibition. […]
Live cells were imaged using an Oxford NanoImager (ONI) superresolution microscope equipped with four laser lines (405/473/561/640 nm) and ×100 oil immersion objective (Olympus 1.49 NA). Pal-mCherry fluorescence images were acquired by scanning a 50 µm × 80 µm area with a 561 nm laser (0.2 mW) set at 49° incidence angle (100 ms exposition), resulting in a 512 × 1024 pixel image. […] Images were recorded by NimOS software associated with the ONI instrument. If not noted otherwise, each image was acquired as a 100- or 200-frame stack for brightfield and fluorescence channels, respectively. […]
All images were analysed using ImageJ software. Fluorescence distribution along x-axis of cells was determined by the plot profile function with a line width of 4 points for TIRFM images and 40 or 80 for FRAP images. […]

## TolB^AAA: Alanine-substitution of three key hydrophobic residues in E. coli TolB (Ile25Ala, Val26Ala, Ile27Ala)
  Pal-mCherry accumulation at division sites: abolishes Pal-mCherry accumulation at the septum
